# Data: patent US5624923A, “Tricyclic diazepine vasopressin antagonists and oxytocin antagonists” (priority 1995, dated 1997)
# Legend:
# [1] = biological target: T1, Human V2 Vasopressin Receptor (Homo sapiens, UniProt P30518); test: Binding to Membranes of Mouse Fibroblast Cell Line (LV-2) Transfected with the cDNA Expressing the Human V2 Vasopressin Receptor; conditions: LV-2 cell membranes, human V2; read-out: V2 IC50 (**)
# T1 construct: expressed in transfected cells; host or cells: mouse fibroblast cell line LV-2
# T1 sequence (P30518 whole entry): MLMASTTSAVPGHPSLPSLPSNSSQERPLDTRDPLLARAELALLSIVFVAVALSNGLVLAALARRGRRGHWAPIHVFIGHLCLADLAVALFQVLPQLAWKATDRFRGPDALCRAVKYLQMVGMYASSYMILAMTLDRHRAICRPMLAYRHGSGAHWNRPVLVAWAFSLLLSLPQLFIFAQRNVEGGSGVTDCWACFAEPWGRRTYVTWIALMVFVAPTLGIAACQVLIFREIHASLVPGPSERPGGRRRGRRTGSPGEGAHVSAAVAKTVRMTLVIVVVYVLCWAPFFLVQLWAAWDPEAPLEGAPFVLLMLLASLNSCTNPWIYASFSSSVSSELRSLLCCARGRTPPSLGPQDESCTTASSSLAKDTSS
# Experimental: Binding to Membranes of Mouse Fibroblast Cell Line (LV-2) Transfected with the cDNA Expressing the Human V2 Vasopressin Receptor
# Flasks of 175 ml capacity, containing attached cells grown to confluence, are cleared of culture medium by aspiration. The flasks containing the attached cells are rinsed with 2×5 ml of phosphate buffered saline (PBS) and the liquid aspirated off each time. Finally, 5 ml of an enzyme free dissociation Hank's based solution (Specialty Media, Inc., Lafayette, N.J.) is added and the flasks are left undisturbed for 2 min. The content of all flasks is. poured into a centrifuge tube and the cells pelleted at 300× g for 15 min. The Hank's based solution is aspirated off and the cells homogenized with a polytron at setting #6 for 10 sec in 10.0 mM Tris.HCl buffer, pH 7.4 containing 0.25M sucrose and 1.0 mM EDTA. The homogenate is centrifuged at 1500× g for 10 min to remove ghost membranes. The supernatant fluid is centrifuged at 100,000× g for 60 min. to pellet the receptor protein. Upon completion, the pellet is resuspended in a small volume of 50.0 mM Tris. HCl buffer, pH 7.4. The protein content is determined by the Lowry method and the receptor membranes are suspended in 50.0 mM Tris.HCl buffer containing 0.1 mM phenylmethylsulfonylfluoride (PMSF) and 0.2% bovine serum albumin (BSA) to give 2.5 mg receptor protein per ml of suspension.
# Arginine^8, vasopressin (S.A. 75.0 Ci/mmole) at 0.8 nM and the reaction initiated by the addition of 80.0 μl of tissue membranes (200.0 μg tissue protein). The plates are left undisturbed on the bench top for 120 min to reach equilibrium. Non specific binding is assessed in the presence of 1.0 μM of unlabeled ligand, added in 20 μl volume. For test compounds, these are solubilized in 50% dimethylsulfoxide (DMSO) and added in 20.0 μl volume to a final incubation volume of 200 μl. Upon completion of binding, the content of each well is filtered off, using a Brandel® cell Harvester (Gaithersburg, Md.). The radioactivity trapped on the filter disk by the ligand-receptor complex is assessed by liquid scintillation counting in a Packard LS Counter, with an efficiency of 65% for tritium. The data are analyzed for IC50 values by the LUNDON-2 program for competition (LUNDON SOFTWARE, Ohio).
# Vasopressin V2 = Vasopressin V2 Antagonist Activity in Conscious Hydrated Rats; type: in vivo, rat; conditions: AVP 0.4 μg/kg i.p.
# Procedure, shortened: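 Four-hour urine output, osmolality and electrolytes (Na+, K+, Cl−) recorded in water-loaded rats (30 mL/kg deionized water orally) given AVP i.p. at 0.4 μg/kg. Test compounds were given orally at 0.1–100 mg/kg 1 h before AVP; 2–4 rats per compound.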
# Rat Hepatic V1 Receptors = biological target: T2, Rat Hepatic V1 Receptors (Rattus norvegicus, UniProt P30560); test: Binding Assay to Rat Hepatic V1 Receptors; conditions: rat liver membranes; read-out: V1 IC50
# T2 construct: Rat liver plasma membranes expressing the vasopressin V1 receptor subtypes; from tissue; host or cells: rat liver plasma membranes
# T2 sequence (P30560 whole entry): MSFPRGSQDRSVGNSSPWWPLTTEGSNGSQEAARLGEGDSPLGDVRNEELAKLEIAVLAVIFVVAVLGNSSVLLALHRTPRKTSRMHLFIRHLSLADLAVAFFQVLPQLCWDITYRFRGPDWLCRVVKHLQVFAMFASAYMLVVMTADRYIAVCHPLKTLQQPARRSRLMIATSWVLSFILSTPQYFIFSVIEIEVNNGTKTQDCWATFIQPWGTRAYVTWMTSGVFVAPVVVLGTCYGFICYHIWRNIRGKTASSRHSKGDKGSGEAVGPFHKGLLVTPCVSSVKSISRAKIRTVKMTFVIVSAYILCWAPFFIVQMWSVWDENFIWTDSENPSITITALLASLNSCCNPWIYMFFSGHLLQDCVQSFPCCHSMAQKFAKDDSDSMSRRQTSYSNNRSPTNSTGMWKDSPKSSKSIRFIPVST
IC50 [1],IC50 (Rat Hepatic V1 Receptors),Structure (SMILES),Osmolality (Vasopressin V2; 10 mg/kg orally),Urine Volume (Vasopressin V2; 10 mg/kg orally),Osmolality (Vasopressin V2; 1 mg/kg orally),Urine Volume (Vasopressin V2; 1 mg/kg orally),Osmolality (Vasopressin V2; 3 mg/kg orally),Urine Volume (Vasopressin V2; 3 mg/kg orally),Osmolality (Vasopressin V2; 30 mg/kg orally),Urine Volume (Vasopressin V2; 30 mg/kg orally)
3.2 nM,,"COc1cc(C(=O)N2Cc3cccn3Cc3ccccc32)ccc1NC(=O)c1ccccc1C [Example 477, N-[4-(5H-pyrrolo[2,1-c][1,4]benzodiazepin-10(11H)-ylcarbonyl)-2-methoxy-phenyl]-2-methylbenzamide]",701 mOsm/kg,5.3 ml/4 hrs,,,,,,
0.67 nM,,"O=C(Nc1ccc(C(=O)N2Cc3cccn3Cc3ccccc32)c(Cl)c1)c1ccc(F)cc1Cl [Example 527, N-[4-(5H-pyrrolo[2,1-c][1,4]benzodiazepin-10(11H)-ylcarbonyl]-3-chlorophenyl]-4-fluoro-2-chlorobenzamide]",430 mOsm/kg,19.5 ml/4 hrs,,,,,,
6 nM,,"O=C(Nc1ccc(C(=O)N2Cc3cccn3Cc3ccccc32)c(Cl)c1)c1ccccc1C(F)(F)F [Example 528, N-[4-(5H-pyrrolo[2,1-c][1,4]benzodiazepin-10(11H)-ylcarbonyl]-3-chlorophenyl]-2-(trifluoromethyl)benzamide]",647 mOsm/kg,11.3 ml/4 hrs,,,,,,
31 nM,,"O=C(Nc1ccc(C(=O)N2Cc3cccn3Cc3sccc32)cc1)c1ccc(Cl)cc1Cl [Example 274, N-(4-(5H-pyrrolo[1,2-a]thieno-[3,2-e][1,4]diazepin-4(10H)-ylcarbonyl)phenyl]-2,4-dichloro-benzamide]",1177 mOsm/kg,3 ml/4 hrs,,,,,,
10 nM,68 nM,"O=C(Nc1ccc(C(=O)N2Cc3ccnn3Cc3ccccc32)cc1)c1ccc(Cl)cc1Cl [Example 217, N-[4-(4H-Pyrazolo[5,1-c][1,4]benzo-diazepin-5(10H)-ylcarbonyl)phenyl]-2,4-dichlorobenzamide]",466 mOsm/kg,14.3 ml/4 hrs,,,,,,
0.42 nM,,"Cc1cccc(C(=O)Nc2ccc(C(=O)N3Cc4cccn4Cc4ccccc43)c(Cl)c2)c1C [Example 525, N-[4-(5H-pyrrolo[2,1-c][1,4]benzodiazepin-10(11H)-ylcarbonyl]-3-chlorophenyl]-2,3-dimethylbenzamide]",557 mOsm/kg,13 ml/4 hrs,,,,,,
,23 nM,"O=C(Nc1ccc(C(=O)N2Cc3cccn3Cc3ccccc32)cc1)c1ccc(Cl)cc1Cl [Example 6, N-[4-(5H-pyrrolo[2,1-c][1,4]benzodiazepin-10(11H)-ylcarbonyl)phenyl]-2,4-dichlorobenzamide]",346 ± 25 mOsm/kg,20.4 ± 1.1 ml/4 hrs,970 mOsm/kg,6 ml/4 hrs,519 ± 30 mOsm/kg,15 ± 1.6 ml/4 hrs,616 ± 87 mOsm/kg,17.9 ± 1.3 ml/4 hrs
,40 nM,"O=C(Nc1ccc(C(=O)N2Cc3cccn3Cc3ccccc32)cc1)C(O)c1ccccc1 (racemic) [Example 588, (±) α-Hydroxy-N-[4-(5H-pyrrolo[2,1c][1,4]benzodiazepin-10(11H)-ylcarbonyl)phenyl]benzeneacetamide]",687 mOsm/kg,9.5 ml/4 hrs,,,,,,
26 nM,,"O=C(Nc1ccc(C(=O)N2Cc3cccn3Cc3ccccc32)cc1)c1cc([N+](=O)[O-])ccc1Cl [Example 480, N-[4-(5H-pyrrolo[2,1-c][1,4]benzodiazepin-10(11H)-ylcarbonyl)phenyl]-2-chloro-5-nitrobenzamide]",827 mOsm/kg,8.8 ml/4 hrs,,,,,,
1.9 nM,,"COc1cc(C(=O)N2Cc3cccn3Cc3ccccc32)ccc1NC(=O)c1ccc(Cl)cc1Cl [Example 478, N-[4-(5H-pyrrolo[2,1-c][1,4]benzodiazepin-10(11H)-ylcarbonyl)-2-methoxy-phenyl]-2,4-dichlorobenzamide]",1399 mOsm/kg,3 ml/4 hrs,,,,,,
